Laboratory results reported in article PMC8225008, “Development of Non-Ethoxypropanoic Acid Type Cryptochrome Inhibitors with Circadian Molecular Clock-Enhancing Activity by Bioisosteric Replacement” (Pharmaceuticals, 2021).

Tests used:
E-box-LUC reporter = test: E-box-LUC luciferase reporter assay, dose-response in stably transfected NIH3T3 cells; assay type: cell-based; details: Mus musculus, E-box-LUC reporter activity, NIH3T3, 36 h; for Emax: maximum response as a percentage of the vehicle-treated group, read-out: Max (%)
Experimental: Materials for cell culture were purchased from Thermo Fisher Scientific, unless otherwise stated. NIH3T3 and HEK293T cells were maintained in Dulbecco’s modified Eagle medium supplemented with 5% fetal bovine serum and 100 U/mL penicillin/streptomycin in a humidified atmosphere containing 5% CO2 at 37 °C. Plasmids and transfection experiments for luciferase reporter assay were described in our previous report. For dose-response experiments, mouse NIH3T3 cells stably transfected with an E-box-LUC reporter were plated in 12-well culture plates, treated as indicated for 36 h, and subjected to luciferase assay. For transient transfections, we seeded HEK293T cells in 12-well culture plates and used Lipofectamine® 3000 reagent to transfect cells with the E-box-LUC reporter and the indicated clock gene expression plasmids together with a thymidine kinase promoter-driven Renilla luciferase (pRL-TK) plasmids. We kept total DNA levels constant by adding an empty pcDNA3.1 plasmid. After 24 h of transfection, cells were treated with vehicle (0.1% DMSO) or chemical compounds at various concentrations for 36 h. Cell extracts were prepared by incubating cells in 0.3 mL reporter lysis buffer for 15 min at room temperature. Luciferase activity was measured with a commercial dual luciferase assay kit (Promega, Madison, WI, USA).
(§1) The EC50 values for luciferase reporter assay were calculated based on a logistic four-parametric equation using the mean values of intrinsic activation (SigmaPlot 10.0; Systat Software Inc., San Jose, CA, USA). The IC50 and t1/2 values for the cytochrome P450 inhibition assay and metabolic stability test were calculated by WinNonlin software (Pharsight, Mountain View, CA, USA). Pharmacokinetic parameters were calculated using non-compartmental analysis (WinNonlin v.8.3; Pharsight, Mountain View, CA, USA). Kinetic and equilibrium constants for SPR analysis were obtained by global fitting of the Langmuir 1:1 bimolecular kinetic model (ProteOn Manager v.3.1.0.6, Bio-Rad, Hercules, CA, USA). Circadian molecular clock-enhancing activities were expressed as means ± SE and statistically evaluated by Student’s t-test or one-way analysis of variance (ANOVA) followed by Newman–Keuls multiple comparison test for post hoc comparisons. The significance level for the analyses was set at p < 0.05.

CYP1A2 = target: T1, CYP1A2 (Homo sapiens, UniProt P05177); test: Cytochrome P450 inhibition assay (cocktail method, human liver microsomes), phenacetin O-deethylation; assay type: in vitro ADME
T1 construct: pooled human liver microsomes (HLMs, XTreme 200, XenoTech, Lenexa, KS, USA); tissue XenoTech XTreme 200; host or cells: pooled human liver microsomes
T1 sequence (P05177 1-516): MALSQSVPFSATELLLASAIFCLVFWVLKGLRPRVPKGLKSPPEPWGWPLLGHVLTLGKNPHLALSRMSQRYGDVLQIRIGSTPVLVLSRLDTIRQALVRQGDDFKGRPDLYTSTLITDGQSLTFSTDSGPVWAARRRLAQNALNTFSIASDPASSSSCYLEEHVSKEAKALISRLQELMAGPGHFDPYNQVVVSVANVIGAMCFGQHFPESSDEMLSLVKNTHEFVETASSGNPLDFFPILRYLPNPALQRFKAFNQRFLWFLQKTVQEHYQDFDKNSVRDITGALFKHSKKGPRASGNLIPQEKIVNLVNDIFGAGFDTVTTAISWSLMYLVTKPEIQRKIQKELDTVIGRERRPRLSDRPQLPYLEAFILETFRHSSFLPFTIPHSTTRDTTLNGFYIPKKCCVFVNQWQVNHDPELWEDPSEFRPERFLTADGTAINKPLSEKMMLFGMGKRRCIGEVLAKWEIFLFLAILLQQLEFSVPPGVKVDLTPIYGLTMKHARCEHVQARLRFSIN
Experimental: (§2) The inhibitory effects of KS15 and compound 5d on the metabolism of five cytochrome P450 (P450) probe substrates were evaluated using previous methods with slight modifications. The following P450 probe substrates were used: phenacetin (100 μM) for CYP1A2, tolbutamide (100 μM) for CYP2C9, omeprazole (20 μM) for CYP2C19, dextromethorphan (5 μM) for CYP2D6, and midazolam (5 μM) for CYP3A. Incubation mixtures containing pooled human liver microsomes (HLMs, XTreme 200, XenoTech, Lenexa, KS, USA), P450 probe substrates, and KS15 or compound 5d (final concentrations: 0, 0.5, 2, 5, 20, and 50 μM) were preincubated for 5 min at 37 °C. […] After centrifugation at 18,000× g (5 min, 4 °C), supernatant aliquots were analyzed by liquid chromatography-tandem mass spectrometry (LC-MS/MS). […]
(§3) All metabolites and IS were separated on a Kinetex C18 column (100 mm × 2.1 mm, 2.6 μm ID., Phenomenex, Torrance, CA, USA) and analyzed using an LC-MS/MS system (LCMS 8060, Shimadzu, Tokyo, Japan) equipped with an electrospray ionization (ESI) interface. […]
(§4) The EC50 values for luciferase reporter assay were calculated based on a logistic four-parametric equation using the mean values of intrinsic activation (SigmaPlot 10.0; Systat Software Inc., San Jose, CA, USA). […] Pharmacokinetic parameters were calculated using non-compartmental analysis (WinNonlin v.8.3; Pharsight, Mountain View, CA, USA). […]

[1] = test system: Per2-luciferase knock-in (Per2-Luc-KI) fibroblast cultures; test: Real-time bioluminescence monitoring of DEX-synchronized Per2-Luc-KI fibroblast cultures; assay type: cell-based, mouse; details: 20 μM, DEX-synchronized Per2-Luc-KI fibroblasts
Experimental: For real-time bioluminescence monitoring, we used mouse embryonic fibroblast (MEF) cultures established from Per2-LUC-KI mice. […] The medium was then replaced with a recording medium containing 0.1 mM D-luciferin (Promega) along with vehicle (0.1% DMSO), KS15 (20 μM), 5d (20 μM), or 2d (20 μM). Light emission for 2 min at intervals of 20 min was integrated using a dish-type wheeled luminometer (Kronos-Dio, ATTO Cooperation, Tokyo, Japan). Background-subtracted bioluminescence profiles were analyzed using Cosinor analysis software (available at http://www.circadian.org, last accessed on 19 May 2021).
as §1

CYP3A = test: Cytochrome P450 inhibition assay (cocktail method, human liver microsomes), midazolam 1'-hydroxylation; assay type: in vitro ADME; details: pooled human liver microsomes, probe midazolam (5 μM)
Experimental: as §2, §3, §4

CYP2D6 = target: T2, CYP2D6 (Homo sapiens, UniProt P10635); test: Cytochrome P450 inhibition assay (cocktail method, human liver microsomes), dextromethorphan O-demethylation; assay type: in vitro ADME
T2 construct: pooled human liver microsomes (HLMs, XTreme 200, XenoTech, Lenexa, KS, USA); tissue XenoTech XTreme 200; host or cells: pooled human liver microsomes
Experimental: as §2, §3, §4

CYP2C19 = target: T3, CYP2C19 (Homo sapiens, UniProt P33261); test: Cytochrome P450 inhibition assay (cocktail method, human liver microsomes), omeprazole hydroxylation; assay type: in vitro ADME
T3 construct: pooled human liver microsomes (HLMs, XTreme 200, XenoTech, Lenexa, KS, USA); tissue XenoTech XTreme 200; host or cells: pooled human liver microsomes
Experimental: as §2, §3, §4

[2] = Metabolic stability test in pooled human liver microsomes; assay type: in vitro ADME; details: pooled HLMs 1.0 mg/mL, 1 μM compound, NADPH generating system, read-out: t1/2 in HLMs
Experimental: The metabolic stability of KS15, 5d, or 2d was evaluated using pooled HLMs. Pooled HLMs (1.0 mg/mL), a potassium phosphate buffer, and a test compound (1 μM) were pre-incubated (37 °C, 5 min). To initiate the reaction, the NADPH generating system was added to the samples and incubated for specific time points (0, 5, 15, 20, 45, and 60 min). Then, aliquots were taken and reactions terminated in acetonitrile containing IS. After centrifugation, supernatants were analyzed using LC-MS/MS to determine KS15, 5d, or 2d concentrations in samples. Analyte separation was performed using a Kinetex C18 column (100 mm × 2.1 mm, 2.6 μm ID., Phenomenex). The mobile phase solvent A was 0.1% formic acid in water, and solvent B was 0.1% formic acid in acetonitrile. Gradient separation was performed as follows: 0–3 min (10–90% B) and 3.1–8 min (10% B). The flow rate was 0.2 mL/min, and the run time was 8 min for each sample. Electrospray ionization was conducted in positive ion mode at 4 kV. […] Quantitation was performed in the SRM of the [M+H]^+ ion and the related product ion for each test compound and IS: KS-15 (m/z 420 > 169, CE 30 eV), 5d (m/z 359 > 206, CE 20 eV), 2d (m/z 345 > 192, CE 22 eV), and IS (m/z 295 > 100, CE 17 eV).
as §1, with “Kinetic and equilibrium constants for SPR analysis were obtained by global fitting of the Langmuir 1:1 bimolecular kinetic model (ProteOn Manager v.3.1.0.6, Bio-Rad, Hercules, CA, USA).” left out, “The significance level for the analyses was set at p < 0.05.” left out

CYP2C9 = target: T4, CYP2C9 (Homo sapiens, UniProt P11712); test: Cytochrome P450 inhibition assay (cocktail method, human liver microsomes), tolbutamide 4-methylhydroxylation; assay type: in vitro ADME
T4 construct: pooled human liver microsomes (HLMs, XTreme 200, XenoTech, Lenexa, KS, USA); tissue XenoTech XTreme 200; host or cells: pooled human liver microsomes
Experimental: as §2, §3, §4

T3 sequence (P33261 whole entry): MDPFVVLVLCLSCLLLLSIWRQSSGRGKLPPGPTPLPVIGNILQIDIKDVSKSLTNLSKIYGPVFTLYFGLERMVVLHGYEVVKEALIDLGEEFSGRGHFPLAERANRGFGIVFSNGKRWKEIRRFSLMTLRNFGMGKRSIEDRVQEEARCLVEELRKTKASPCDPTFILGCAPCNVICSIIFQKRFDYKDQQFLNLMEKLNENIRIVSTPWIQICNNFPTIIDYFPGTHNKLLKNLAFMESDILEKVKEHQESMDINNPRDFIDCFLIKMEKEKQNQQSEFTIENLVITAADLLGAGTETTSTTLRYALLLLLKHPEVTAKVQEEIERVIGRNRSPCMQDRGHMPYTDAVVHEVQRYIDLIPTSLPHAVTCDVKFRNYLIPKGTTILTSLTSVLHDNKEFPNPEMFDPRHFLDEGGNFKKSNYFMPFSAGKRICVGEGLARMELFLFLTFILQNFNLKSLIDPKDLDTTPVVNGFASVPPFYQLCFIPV
T4 sequence (P11712 whole entry): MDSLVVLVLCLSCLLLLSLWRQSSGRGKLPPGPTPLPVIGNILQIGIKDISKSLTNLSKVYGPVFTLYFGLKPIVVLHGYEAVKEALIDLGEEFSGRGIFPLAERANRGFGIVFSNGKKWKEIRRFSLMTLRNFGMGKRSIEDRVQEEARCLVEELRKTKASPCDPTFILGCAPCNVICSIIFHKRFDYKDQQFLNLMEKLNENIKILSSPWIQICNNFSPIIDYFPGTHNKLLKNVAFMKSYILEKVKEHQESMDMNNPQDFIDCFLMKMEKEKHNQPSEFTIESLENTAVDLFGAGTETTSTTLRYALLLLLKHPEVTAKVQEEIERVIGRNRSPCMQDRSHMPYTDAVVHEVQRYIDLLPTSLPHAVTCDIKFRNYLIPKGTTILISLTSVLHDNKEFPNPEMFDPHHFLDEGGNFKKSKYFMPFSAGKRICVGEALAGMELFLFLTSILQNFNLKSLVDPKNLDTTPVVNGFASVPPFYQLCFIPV
T2 sequence (P10635 whole entry): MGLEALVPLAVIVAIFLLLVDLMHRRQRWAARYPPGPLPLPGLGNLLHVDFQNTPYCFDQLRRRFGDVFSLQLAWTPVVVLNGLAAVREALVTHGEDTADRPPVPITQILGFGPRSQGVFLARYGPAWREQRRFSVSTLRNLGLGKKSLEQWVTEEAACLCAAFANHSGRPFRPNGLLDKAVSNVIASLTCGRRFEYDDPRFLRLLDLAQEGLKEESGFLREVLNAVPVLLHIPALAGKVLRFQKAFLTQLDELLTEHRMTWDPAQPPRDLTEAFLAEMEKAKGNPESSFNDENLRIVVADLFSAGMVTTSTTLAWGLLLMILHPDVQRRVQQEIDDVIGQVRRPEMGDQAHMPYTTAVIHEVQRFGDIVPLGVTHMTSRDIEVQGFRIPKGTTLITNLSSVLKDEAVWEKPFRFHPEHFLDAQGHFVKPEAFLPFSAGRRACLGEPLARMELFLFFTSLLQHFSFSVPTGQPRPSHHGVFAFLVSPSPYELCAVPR

Row | EC50 (E-box-LUC reporter) | Structure (SMILES) | Emax (E-box-LUC reporter) | further results
1 | 6.32 µM | COC(=O)COc1cccc(C(C)=NOCc2ccc(OC)cc2)c1 [Compound 5c, Methyl 2-(3-(1-(((4-methoxybenzyl)oxy)imino)ethyl)phenoxy)acetate] | 152% | 
2 |  | CC(=NOCc1ccc(S(C)(=O)=O)cc1)c1cccc(OCC(=O)O)c1 [Compound 2e, 2-(3-(1-(((4-methylsulfonylbenzyl)oxy)imino)ethyl)phenoxy)acetic acid] | 98.7% | 
3 |  | COC(=O)COc1cccc(C(C)=NOCc2ccc(S(C)(=O)=O)cc2)c1 [Compound 5e, Methyl 2-(3-(1-(((4-methylsulfonylbenzyl)oxy)imino)ethyl)phenoxy)acetate] | 105% | 
4 |  | CCO[C@H](Cc1cccc(/C(C)=N/OCc2ccc(Br)cc2)c1)C(=O)O [KS15, reference compound] |  | IC50 (CYP1A2): 14.9 µM; Amplitude of cyclic Per2 expression [1]: attenuates amplitude; Period of the rhythm [1]: did not significantly alter the period; IC50 at 10 min (CYP3A): 24 µM; IC50 (CYP2D6): 23.1 µM; IC50 (CYP2C19): 20.2 µM; half-life at 1 μM [2]: > 1 h; IC50 (CYP2C9): 9.1 µM
5 |  | COC(=O)COc1cccc(/C(C)=N/OCc2ccc(Br)cc2)c1 [Compound 5a] | 149% | 
6 | 9.88 µM | COc1ccc(CON=C(C)c2cccc(OCC(=O)O)c2)cc1 [Compound 2c, 2-(3-(1-(((4-methoxybenzyl)oxy)imino)ethyl)phenoxy)acetic acid] | 182% | 
7 |  | COC(=O)COc1cccc(C(C)=NOCc2cccc(C(F)(F)F)c2)c1 [Compound 5b, Methyl 2-(3-(1-(((3-trifluoromethylbenzyl)oxy)imino)ethyl)phenoxy)acetate] | 172% | 
8 | 1.54 µM | C/C(=N\OCc1ccc(Br)cc1)c1cccc(OCC(=O)O)c1 [Compound 2a] | 165% | 
9 |  | CC(=NOCc1cccc(C(F)(F)F)c1)c1cccc(OCC(=O)O)c1 [Compound 2b, 2-(3-(1-(((3-trifluoromethylbenzyl)oxy)imino)ethyl)phenoxy)acetic acid] | 131% | 
